Source: patent US6077871A, “Droloxifene pharmaceutical compositions” (Pfizer Inc., priority 1998, dated 2000)
Structures can show the parent of a compound that is named as a salt. Where two headings read alike, the source gives them in different places.

Assays:
[1] = Stability of droloxifene out of light / in light-protected solutions; format: physicochemical
Text: The results in Table 2 (below) show a stability enhancement of droloxifene with the inclusion of cyclodextrins. The concentration of cyclodextrin that results in the greatest stabilizing effect depends on the efficiency of the formation of the droloxifene-cyclodextrin inclusion complex, that is, the stability constant, as well as the initial concentration of droloxifene present. […] This stability improvement is further useful for preconstituted aqueous solutions which must have a long practical shelf-life, e.g., 2 years, even if packaged in a partially light-protected package. […] While not wishing to be held to any theory, it is believed that incorporation of droloxifene in the cyclodextrin cavity minimizes a cis-trans isomerization reaction, thus reducing the formation of the isomeric decay product and resulting in an overall stability improvement.

[2] = pH 3
Experimental: The solubility of droloxifene citrate was determined in an aqueous phosphate buffer at pH 3, without and with various levels of cyclodextrins. Solubility testing of droloxifene citrate in solutions of the cydodextrins, SBECD and HPBCD, was conducted using an equilibrium solubility method. The following protocol was employed for the solubility determination.
Separate 0.02 M aqueous buffer solutions of phosphoric acid (H3 PO4) and 0.02 M dibasic sodium phosphate (Na2 HPO4) were prepared by dissolving 2.25 gm and 2.84 gm, respectively, into separate one liter portions of deionized water and stirring with a magnetic stir bar until dissolved. To obtain a pH 3 buffer, the two previous buffers were combined, at an approximate ratio of 2:1 (H3 PO4 buffer:Na2 HPO4 buffer). The final volume of the resulting pH 3 buffer was not critical.
To 25 mL volumetric flasks, weights of either HPBCD or SBECD were added to produce final concentrations of each cyclodextrin shown in Table 1. For example, to prepare a 2% w/v solution of HPBCD in pH 3 phosphate buffer, 0.5 gm of HPBCD was accurately added to a 25 mL volumetric flask. […]
To 5 mL glass vials with screw caps, 3 mL of the desired cyclodextrin solution was added. […] The contents were filtered into a clean screw cap vial through a Millex-HV 0.45 μm filter (Millipore, Bedford, Mass.) and the drug concentration determined by an HPLC method. […]

[3] = pH 3, 30° C., 840 footcandle fluorescent light
Experimental: The stability of droloxifene citrate was determined at pH 3 with various concentrations of SBECD and HPBCD. For this protocol, the 0.02 M sodium phosphate buffer of pH 3 and the cyclodextrin solutions were prepared as for the droloxifene solubility determination described previously. 10 mL of each cyclodextrin solution was added to an 18 mL clear glass vial with screw cap which contained a previously weighed amount of droloxifene citrate. The vials were swirled until dissolution of droloxifene citrate was complete. The concentration of droloxifene citrate ranged from 0.05-0.1 mgA/mL. Concentrations of HPBCD included 0.2, 2, 4, 7 and 10% w/v. Concentrations of SBECD included 0.33 and 3.3% w/v. The vials were stored in an 840 footcandle fluorescent light box at 30° C. The solutions were removed briefly from time to time to allow drug concentration determination using the HPLC method described as for the solubility determination.

Compound	stability in light-protected solutions ([1]; light-protected solutions with beta-cyclodextrins present)	stability out of light ([1]; out of light vs in light)	solubility with cyclodextrin [2]	Decay Rate Constant ([3]; 0.2% HPBCD)	Time Required for 1% Decay ([3]; 0.2% HPBCD)	Decay Rate Constant ([3]; 0.33% SBECD)	Time Required for 1% Decay ([3]; 0.33% SBECD)	Decay Rate Constant ([3]; 2% HPBCD)	Time Required for 1% Decay ([3]; 2% HPBCD)	Decay Rate Constant ([3]; 3.3% SBECD)	Time Required for 1% Decay ([3]; 3.3% SBECD)	Decay Rate Constant ([3]; no cyclodextrin)	Time Required for 1% Decay ([3]; no cyclodextrin)
CC/C(=C(/c1ccc(OCCN(C)C)cc1)c1cccc(O)c1)c1ccccc1 [droloxifene, 1-[4'-(2-dimethylaminoethoxy)phenyl]-1-(3'-hydroxyphenyl)-2-phenylbut-1-ene]	an improvement in stability is also observed	significantly more stable out of light	–	–	–	–	–	–	–	–	–	–	–
CC/C(=C(/c1ccc(OCCN(C)C)cc1)c1cccc(O)c1)c1ccccc1 [droloxifene citrate]	–	–	enhancement of droloxifene citrate solubility with cyclodextrin	0.0094 h⁻¹	1.1 h	0.0090 h⁻¹	1.1 h	0.0030 h⁻¹	3.3 h	0.0070 h⁻¹	1.4 h	0.0123 h⁻¹	0.8 h
